From ChEMBL document CHEMBL1144615, “Neuroprotective effects of kobophenol A against the withdrawal of tropic support, nitrosative stress, and mitochondrial damage in SH-SY5Y neuroblastoma cells” (2007)
The source made the active and inactive calls. The rule behind the calls is not given here.

Columns and labels:
SH-SY5Y [1] = test: Reduction of nitric oxide-induced intracellular calcium level in SH-SY5Y cells; format: functional, cell-based; details: Homo sapiens
SH-SY5Y [2] = test: Increase in cell viability of SH-SY5Y cells in serum starved conditions at 20 ug/mL after 48 hrs by MTT assay relative to control; format: functional, Homo sapiens
SH-SY5Y [3] = test: Effect on 3 mM sodium nitroprusside-induced mitochondrial transmembrane potential level in SH-SY5Y cells after 24 hrs; format: functional, Homo sapiens
SH-SY5Y [4] = test: Inhibition of 2 mM paraquat-induced cell death in SH-SY5Y cells assessed as increase in cell viability at 30 ug/mL after 24 hrs by MTT assay relative to control; format: functional, Homo sapiens
Caspase-9 (Homo sapiens) [5] = molecular target: T1, Caspase-9 (Homo sapiens) (UniProt P55211); test: Decrease in sodium nitroprusside-induced caspase 9 activity in SH-SY5Y cells; format: cell-based
T1 sequence (whole entry): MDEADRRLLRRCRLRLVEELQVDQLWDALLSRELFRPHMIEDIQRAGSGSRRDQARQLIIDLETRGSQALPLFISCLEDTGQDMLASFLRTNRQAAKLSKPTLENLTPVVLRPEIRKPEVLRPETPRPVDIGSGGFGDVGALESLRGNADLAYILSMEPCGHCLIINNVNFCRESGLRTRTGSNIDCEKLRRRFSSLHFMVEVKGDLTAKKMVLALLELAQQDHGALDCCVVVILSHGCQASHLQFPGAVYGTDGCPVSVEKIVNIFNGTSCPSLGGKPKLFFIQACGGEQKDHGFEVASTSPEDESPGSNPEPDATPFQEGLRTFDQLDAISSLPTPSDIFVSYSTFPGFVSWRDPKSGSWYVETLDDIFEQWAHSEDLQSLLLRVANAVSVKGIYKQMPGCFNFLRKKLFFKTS

Caspase-3 (Homo sapiens) [6] = molecular target: T2, Caspase-3 (Homo sapiens) (UniProt P42574); test: Decrease in sodium nitroprusside-induced caspase-3 activity in SH-SY5Y cells; format: cell-based
T2 sequence (whole entry): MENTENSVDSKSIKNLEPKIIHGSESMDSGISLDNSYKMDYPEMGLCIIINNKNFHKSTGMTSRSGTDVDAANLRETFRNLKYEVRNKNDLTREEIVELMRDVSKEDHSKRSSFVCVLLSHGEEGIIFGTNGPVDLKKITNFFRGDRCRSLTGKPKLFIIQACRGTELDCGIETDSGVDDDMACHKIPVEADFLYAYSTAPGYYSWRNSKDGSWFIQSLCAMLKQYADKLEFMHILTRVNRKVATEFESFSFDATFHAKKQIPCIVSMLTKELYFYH

SH-SY5Y [7] = test: Inhibition of 5 mM sodium nitroprusside-induced cell death in SH-SY5Y cells assessed as increase in cell viability at 30 ug/mL after 24 hrs by MTT assay relative to control; format: functional, Homo sapiens
SH-SY5Y [8] = test: Effect on 2 mM paraquat-induced intracellular calcium level in SH-SY5Y cells after 24 hrs relative to contro; format: functional, Homo sapiens
SH-SY5Y [9] = test: Reduction on paraquat-induced ROS production in SH-SY5Y cells; format: functional, Homo sapiens; set-up: scale not given: the % may be the effect or the level left
SH-SY5Y [10] = test: Reduction of sodium nitroprusside-induced cell death in SH-SY5Y cells assessed as subG1 DNA content relative to control; format: functional, cell-based; details: Homo sapiens
SH-SY5Y [11] = test: Inhibition of 1 mM sodium nitroprusside-induced cell death in SH-SY5Y cells assessed as increase in cell viability at 30 ug/mL after 24 hrs by MTT assay relative to control; format: functional, Homo sapiens
SH-SY5Y [12] = test: Increase in cell viability of SH-SY5Y cells in serum starved conditions at 10 ug/mL after 48 hrs by MTT assay relative to control; format: functional, Homo sapiens
SH-SY5Y [13] = test: Reduction of paraquat-induced cell death in SH-SY5Y cells assessed as subG1 DNA content relative to control; format: functional, cell-based; details: Homo sapiens
SH-SY5Y [14] = test: Effect on sodium nitroprusside-induced intracellular calcium level in SH-SY5Y cells after 8 hrs relative to control; format: functional, Homo sapiens
SH-SY5Y [15] = test: Inhibition of 2 mM paraquat-induced cell death in SH-SY5Y cells assessed as increase in cell viability at 10 ug/mL after 24 hrs by MTT assay relative to control; format: functional, Homo sapiens
SH-SY5Y [16] = test: Inhibition of 3 mM sodium nitroprusside-induced cell death in SH-SY5Y cells assessed as increase in cell viability at 30 ug/mL after 24 hrs by MTT assay relative to control; format: functional, Homo sapiens
Caspase-3 (Homo sapiens) [17] = molecular target: T2, Caspase-3 (Homo sapiens); test: Decrease in paraquat-induced caspase-3 activity in SH-SY5Y cells; format: cell-based
SH-SY5Y [18] = test: Effect on 2 mM paraquat-induced intracellular calcium level in SH-SY5Y cells after 8 hrs relative to control; format: functional, Homo sapiens
SH-SY5Y [19] = test: Effect on sodium nitroprusside-induced intracellular calcium level in SH-SY5Y cells after 25 hrs relative to control; format: functional, Homo sapiens
SH-SY5Y [20] = test: Effect on 3 mM sodium nitroprusside-induced mitochondrial transmembrane potential level in SH-SY5Y cells after 8 hrs; format: functional, Homo sapiens
SH-SY5Y [21] = test: Increase in cell viability of SH-SY5Y cells in serum starved conditions at 30 ug/mL after 48 hrs by MTT assay relative to control; format: functional, Homo sapiens
SH-SY5Y [22] = test: Inhibition of 2 mM paraquat-induced cell death in SH-SY5Y cells assessed as increase in cell viability at 20 ug/mL after 24 hrs by MTT assay relative to control; format: functional, Homo sapiens
SH-SY5Y [23] = test: Reduction on sodium nitroprusside-induced ROS production in SH-SY5Y cells; format: functional, Homo sapiens; set-up: scale not given: the % may be the effect or the level left
SH-SY5Y [24] = test: Reduction of sodium nitroprusside-induced nitric oxide production in SH-SY5Y cells; format: functional, cell-based; details: Homo sapiens
Caspase-9 (Homo sapiens) [25] = molecular target: T1, Caspase-9 (Homo sapiens); test: Decrease in paraquat-induced caspase 9 activity in SH-SY5Y cells; format: cell-based

With `Oc1ccc([C@H]2Oc3cc(O)cc([C@@H]4[C@H](c5cc(O)cc(O)c5)[C@@H](c5ccc(O)cc5)O[C@H]4c4ccc(O)cc4)c3[C@@H]2c2cc(O)c3c(c2)[C@@H](c2cc(O)cc(O)c2)[C@H](c2ccc(O)cc2)O3)cc1` [KOBOPHENOL A] the Activity (SH-SY5Y [1]) was “Active”, the Activity (SH-SY5Y [2]) was 91.4% and the Activity (SH-SY5Y [3]) was 119.3%. The Activity (SH-SY5Y [4]) was 102.5%, the Activity (Caspase-9 (Homo sapiens) [5]) was “Dose-dependent effect” and the Activity (Caspase-3 (Homo sapiens) [6]) was “Dose-dependent effect”. For the same compound, the Activity (SH-SY5Y [7]) was 88.1%, the Activity (SH-SY5Y [8]) was 98.3% and the Activity (SH-SY5Y [9]) was 103.6%. The Activity (SH-SY5Y [10]) was “Active”, the Activity (SH-SY5Y [11]) was 108.6% and the Activity (SH-SY5Y [12]) was 105.7%. The Activity (SH-SY5Y [13]) was “Active”, the Activity (SH-SY5Y [14]) was 96.1% and the Activity (SH-SY5Y [15]) was 66.3%. For the same compound, the Activity (SH-SY5Y [16]) was 109.8%, the Activity (Caspase-3 (Homo sapiens) [17]) was “Active” and the Activity (SH-SY5Y [18]) was 99.1%. It also gave an Activity (SH-SY5Y [19]) of 96.1%, an Activity (SH-SY5Y [20]) of 128.3% and an Activity (SH-SY5Y [21]) of 78.7%. For the same compound, the Activity (SH-SY5Y [22]) was 85.6%, the Activity (SH-SY5Y [23]) was 103.4% and the Activity (SH-SY5Y [24]) was “inactive”. For the same compound, the Activity (Caspase-9 (Homo sapiens) [25]) was “Dose-dependent effect”.
